Consider one compound from PMC6145842 (Biochemical and biophysical research communications, 2018).

The test addresses T1, DXO (Mus musculus, UniProt O70348).
T1 sequence (O70348 1-397): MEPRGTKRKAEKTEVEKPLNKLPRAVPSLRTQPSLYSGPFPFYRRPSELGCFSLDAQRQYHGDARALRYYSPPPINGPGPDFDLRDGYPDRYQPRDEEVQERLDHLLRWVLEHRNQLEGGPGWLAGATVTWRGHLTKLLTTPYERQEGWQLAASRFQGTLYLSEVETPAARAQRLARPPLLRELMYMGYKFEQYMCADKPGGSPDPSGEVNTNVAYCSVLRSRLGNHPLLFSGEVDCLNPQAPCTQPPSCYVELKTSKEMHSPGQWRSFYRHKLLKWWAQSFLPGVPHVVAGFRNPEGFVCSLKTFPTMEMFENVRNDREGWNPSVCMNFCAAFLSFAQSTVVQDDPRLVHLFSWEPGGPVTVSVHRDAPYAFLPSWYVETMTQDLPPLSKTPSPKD
In words: crystal structure at […] Å. The test is classed as binding.

The Kd is the concentration at which binding is half-saturated. Higher therefore signals weaker binding. `Nc1ncnc2c1ncn2[C@@H]1O[C@H](COP(=O)(O)O)[C@@H](OP(=O)(O)O)[C@H]1O` [pAp, adenosine 3’,5’-bisphosphate] registered a Kd of 20 to 30 mM.
